Experimental data reported in PubChem BioAssay (NCI).
Where “and” joins values, the source holds several entries; their conditions need not be identical. Identical values can stand only once.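 Interpolation was linear, between the two tested concentrations surrounding the appropriate level; five concentrations were tested over 48 hours in 96-well plates. The concentration for 50% growth inhibition is given as GI50. The concentration for full growth arrest is given as TGI.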

Assays:
Assay in all cases: NCI tumour cell line growth inhibition, 48 h
SK-MEL-28 melanoma = test system: SK-MEL-28 melanoma
M14 melanoma = test system: M14 melanoma
HL-60(TB) leukemia = test system: HL-60(TB) leukemia
HCT-15 colon = test system: HCT-15 colon
UACC-257 melanoma = test system: UACC-257 melanoma
BT-549 breast = test system: BT-549 breast
NCI-H23 lung = test system: NCI-H23 lung
MALME-3M melanoma = test system: MALME-3M melanoma
SNB-75 CNS = test system: SNB-75 CNS
786-0 renal = test system: 786-0 renal

| SMILES | GI50 (SK-MEL-28 melanoma) | TGI (SK-MEL-28 melanoma) | GI50 (M14 melanoma) | TGI (M14 melanoma) | GI50 (HL-60(TB) leukemia) [µM] | TGI (HL-60(TB) leukemia) [µM] | GI50 (HCT-15 colon) | TGI (HCT-15 colon) | GI50 (UACC-257 melanoma) | TGI (UACC-257 melanoma) | GI50 (BT-549 breast) | TGI (BT-549 breast) | GI50 (NCI-H23 lung) | TGI (NCI-H23 lung) | GI50 (MALME-3M melanoma) | TGI (MALME-3M melanoma) | GI50 (SNB-75 CNS) | TGI (SNB-75 CNS) | GI50 (786-0 renal) | TGI (786-0 renal) |
| --- | --- | --- | --- | --- | --- | --- | --- | --- | --- | --- | --- | --- | --- | --- | --- | --- | --- | --- | --- | --- |
| O=C(c1ccc(OCCN2CCCCC2)cc1)c1c(-c2ccc(O)cc2)sc2cc(O)ccc12 | 12.3 µM and 6.65 µM | 25.1 µM and 23.6 µM | 3.23 µM and 10.3 µM | 11.1 µM and 32.3 µM | 2.02 | 12.7 | 5.51 µM and 2.67 µM | 20.8 µM and 13.2 µM | 2.82 µM and 3.52 µM | 10.8 µM and 10.5 µM | 7.8 µM and 12 µM | 21.5 µM and 27.9 µM | 10.8 µM and 18.5 µM | 27 µM and 45.2 µM | 6.05 µM and 13.5 µM | 23.5 µM and 28.9 µM | 7.55 µM and 8.56 µM | 20.6 µM and 23.6 µM | 4.5 µM and 7.58 µM | 18.2 µM and 27.6 µM |
| COC(=O)[C@H]1[C@@H](O)[C@@]2(O)c3c(OC)cc(O[C@@H]4O[C@@H]([C@H](O)CO)CO[C@H]4OC)cc3O[C@@]2(c2ccc(OC)cc2)[C@@H]1c1ccccc1 | 0.00321 µM | 0.0119 µM | 0.00818 µM | 0.0271 µM | 0.00327 | 0.0185 | 0.233 µM | > 1 µM | 0.00627 µM | 0.0451 µM | 0.00434 µM | 0.0322 µM | 0.00441 µM | 0.0422 µM | 0.00321 µM | 0.0259 µM | 0.004 µM | 0.0321 µM | 0.0282 µM | 0.127 µM |
| NC(=O)/C(=C\c1ccncc1)c1cccc2ccccc12 |  | > 100 µM |  | > 100 µM |  | > 100 |  | > 100 µM |  | 8.49 µM |  | > 100 µM |  | > 100 µM |  | > 100 µM |  | > 100 µM |  | > 100 µM |
| CCN1C(=O)N(CC)C2C1NN=c1s/c(=C\c3ccccc3F)c(=O)n12 (stereo not given) | 62.4 µM | > 100 µM | 0.0311 µM | > 100 µM | 0.0239 | 0.0607 | 0.0316 µM | > 100 µM | 2.11 µM | > 100 µM | 0.0358 µM | > 93.3 µM | 0.0641 µM | > 100 µM | 15.4 µM | > 100 µM | 0.0133 µM | 0.0711 µM | 0.061 µM | 52.8 µM |
| O=C1/C=C/[C@@H](O)[C@@H]2C[C@@H](O)C[C@H]2/C=C/CCC[C@H](CCc2ccc(C(F)(F)F)cc2)O1 | 0.0405 µM | 0.361 µM | 0.247 µM | 11.9 µM | 0.346 | 2.74 | 0.34 µM | 2.36 µM | 0.182 µM | > 40.2 µM | 0.355 µM | 10.7 µM | 0.236 µM | 1.57 µM | 0.364 µM | 2.88 µM | 0.0544 µM | 32.5 µM | 0.0826 µM | 0.378 µM |
| COc1c2ccoc2cc2oc(=O)ccc12 |  | > 100 µM |  | > 100 µM |  | > 100 |  | > 100 µM |  | > 100 µM |  | > 100 µM |  | > 100 µM |  | > 100 µM |  | > 100 µM |  | > 100 µM |
| CN(C)CCCNC(=O)c1ccc2oc3cc4ccccc4c(=O)n3c2c1 | 19.9 µM | > 50 µM | 30.3 µM | > 50 µM | 29.8 | > 50 | 23.8 µM | > 50 µM | 20.6 µM | > 50 µM | 24.2 µM | > 50 µM | 17.9 µM | > 50 µM | > 50 µM | > 50 µM | 12.6 µM | 33.1 µM | > 50 µM | > 50 µM |
